According to US10006009B2, “Codon-optimized gene for mutated shrimp luciferase and method for use thereof” (JNC CORPORATION, priority 2013, dated 2018):
“Also recorded” adds a separate entry of the source.

Columns and labels:
Format in all cases: biochemical
[1] = biological target: T1, codon-optimized nanoKAZ domain protein (Oplophorus gracilirostris, UniProt Q9GV45, A31E/A60N/A81I/F95D/I117V/K70R/L54V/L99Q/M102K/N193R/P142E/Q151K/Q38R/Q45L/V71I/Y165I); test: Substrate specificity and luminescence pattern of nanoKAZ secreted into culture medium; settings: for luminescence pattern: FIG. 4; for Relative luminescence activity integrated (1 min) / Relative maximum luminescence intensity (Imax): culture medium with secreted nanoKAZ as enzyme, coelenterazine = 1.0
T1 construct: expressed in transfected cells; host or cells: CHO-K1, HeLa or COS-1 cells transfected with pcDNA3-nanoKAZ or pcDNA3-GLsp-nanoKAZ
Procedure: The luminescence reaction was started by addition of 5 μL of the enzyme solution for assay obtained in EXAMPLE 3 to 100 μL of 50 mM Tris-HCl (pH 7.6)-10 mM EDTA (Wako Pure Chemical Industries, Ltd.) containing 0.5 μg of coelenterazine (manufactured by JNC Corp.). The luminescence activity was measured for 60 seconds with a luminometer (manufactured by Atto Co.: AB2200). The maximum intensity of luminescence (Imax) and the luminescence activity integrated for 60 seconds were represented as relative light units (rlu). On the other hand, the luminescence activity of firefly luciferase was used as an internal standard to confirm the efficiency of transfection. Five microliters of the enzyme solution for assay obtained in EXAMPLE 3 was added to 100 μL of the enzyme assay solution (manufactured by Promega Corp.) to start the luminescence reaction. The luminescence activity was measured with a luminometer (manufactured by Atto Co.: AB2200) by integration of luminescence for 10 seconds, which was shown as relative light units (rlu). […] While the transfection efficiencies vary in depending upon cell types, the transfection efficiencies of pcDNA3-nanoKAZ and pcDNA3-GLsp-nanoKAZ are almost the same. The results obtained by measuring the luminescence activity of CHO-K1 cells, HeLa cells and COS-1 cells in culture medium and cells are shown in TABLE 4. Evidently, pcDNA3-nanoKAZ without a signal peptide sequence for secretion was secreted comparably or more efficiently than pcDNA3-GLsp-nanoKAZ.
Coelenterazine analogues used in the substrate specificity experiments were synthesized by the methods described in the respective papers. More specifically, bis-coelenterazine, furimazine and C2-coelenterazine analogue were synthesized by the methods described in Nakamura et al. (1997) Tetrahedron Lett. 38:6405-6406, Hall et al. (2012) ACS Chem. Biol. […] and Inouye et al. (2010) Anal. Biochem. 407: 247-252, respectively. Using as an enzyme solution for coelenterazine or its analogues the culture medium, into which nanoKAZ was secreted as described in EXAMPLE 4, the luminescence activity was measured. Among coelenterazine analogues, the relative maximum intensity of luminescence for h-, bis-, 3me- and 3meo-coelenterazines was at least 10-fold higher and the relative luminescence activity integrated for 1 minute of h- and bis-coelenterazines was at least 10-fold higher, than the others. These luminescence patterns are illustrated in FIG. 4.

[2] = biological target: T2, purified codon-optimized nanoKAZ domain protein (Oplophorus gracilirostris, UniProt Q9GV45, A31E/A60N/A81I/F95D/I117V/K70R/L54V/L99Q/M102K/N193R/P142E/Q151K/Q38R/Q45L/V71I/Y165I); test: Substrate specificity of purified nanoKAZ; settings: purified nanoKAZ 0.03 μg, 1 μg substrate, coelenterazine = 1.0
T2 construct: histidine tag (6 His) (N, cleaved yes); ZZ domain (N, cleaved yes); made in house; host or cells: Escherichia coli BL21
Procedure: The luminescence reaction was started by addition of 5 μl (0.03 μg) of the purified enzyme solution obtained in EXAMPLE 7 to 100 μl of 50 mM Tris-HCl (pH 7.6)-10 mM EDTA (Wako Pure Chemical Industries, Ltd.) containing 1 μg of coelenterazine (manufactured by JNC) or its analogues. The luminescence activity was measured with a luminometer (manufactured by Atto Co.: AB2200) for 60 seconds. The maximum intensity of luminescence (Imax) and the level integrated for 60 seconds were represented as relative light units (rlu).
The luminescence activity of the purified codon-optimized nanoKAZ domain was measured in accordance with the method described in EXAMPLE 8. […] The results obtained using the purified codon-optimized nanoKAZ as the enzyme solution are in good agreement with the results found by using the culture cell solution as the enzyme solution.

purified nanoKAZ = biological target: T3, purified nanoKAZ (Oplophorus gracilirostris, UniProt Q9GV45, A31E/A60N/A81I/F95D/I117V/K70R/L54V/L99Q/M102K/N193R/P142E/Q151K/Q38R/Q45L/V71I/Y165I); test: Emission spectra by purified nanoKAZ using coelenterazine analogues; settings: purified nanoKAZ 3 μg, substrate 5 μg, 22-25° C.
T3 construct: histidine tag (6 His) (N, cleaved yes); ZZ domain (N, cleaved yes); made in house; host or cells: Escherichia coli BL21
Procedure: The luminescence reaction was started by addition of a solution of substrate coelenterazine (5 μg/5 μL) in ethanol to a solution of nanoKAZ (3 μg) in 30 mM Tris-HCl (pH 7.6) containing 500 μl of 10 mM EDTA. The luminescence spectra were measured in a quartz cell with an optical path length of 10 mm, with a fluorescence spectrophotometer (manufactured by JASCO Corp., FP-6500) with the excitation light source turned off to correct for the spectra. The measurement conditions used were as follows: band width: 20 nm, response: 0.5 second, scan speed: 2000 nm/min at 22-25° C. The maximum intensity of luminescence (λmax, nm) and half bandwidth (nm) were determined from the luminescence spectra measured, which are summarized in TABLE 8.

T3 sequence (Q9GV45 other isoform, or with tags, fused parts or gaps with the stated changes): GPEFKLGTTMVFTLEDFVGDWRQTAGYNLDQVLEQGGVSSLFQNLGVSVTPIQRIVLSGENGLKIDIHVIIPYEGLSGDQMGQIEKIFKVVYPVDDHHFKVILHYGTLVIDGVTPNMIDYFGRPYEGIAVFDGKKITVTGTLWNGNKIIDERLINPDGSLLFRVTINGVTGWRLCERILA
T2 sequence (Q9GV45 other isoform, or with tags, fused parts or gaps with the stated changes): as above
T1 sequence (Q9GV45 28-196 with tags or gaps with the stated changes limits assumed): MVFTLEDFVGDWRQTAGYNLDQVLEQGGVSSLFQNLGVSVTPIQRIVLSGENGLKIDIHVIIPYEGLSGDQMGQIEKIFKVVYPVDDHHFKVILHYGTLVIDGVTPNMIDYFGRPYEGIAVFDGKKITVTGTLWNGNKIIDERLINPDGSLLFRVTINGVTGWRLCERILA

| Molecule | luminescence pattern [1] | Relative luminescence activity integrated (1 min) [1] | Relative maximum luminescence intensity (Imax) [1] | Maximum luminescence intensity (Imax) [2] | Relative luminescence activity integrated (1 min) [2] | Half bandwidth FWHM (purified nanoKAZ) [nm] | Maximum wavelength λmax (purified nanoKAZ) [nm] | activity relative to furimazine ([1]; higher than that of furimazine) |
| --- | --- | --- | --- | --- | --- | --- | --- | --- |
| O=c1c(Cc2cccc(O)c2)nc2c(Cc3ccccc3)[nH]c(-c3ccc(O)cc3)cn1-2 [3iso-Coelenterazine] | did not show the rapid-decay luminescence patterns | 1.4 | 1.5 | 1.1 | 0.9 | 75 | 460 |  |
| Cc1cccc(Cc2nc3c(Cc4ccccc4)[nH]c(-c4ccc(O)cc4)cn-3c2=O)c1 [3me-Coelenterazine] |  | 7.9 | 11.5 | 10.3 | 4.2 | 73 | 458 |  |
| COc1cccc(Cc2nc3c(Cc4ccccc4)[nH]c(-c4ccc(O)cc4)cn-3c2=O)c1 [3meo-Coelenterazine] |  | 8.2 | 11.6 | 11.1 | 6.6 | 71 | 458 |  |
| Oc1ccc(Cc2nc3c(Cc4ccccc4)nc(-c4ccc(O)cc4)cn3c2O)cc1 [Coelenterazine (CTZ), Coelenterazine] |  | 1.0 | 1.0 | 1.0 | 1.0 | 73 | 457 |  |
| O=c1c(Cc2ccco2)nc2c(Cc3ccccc3)[nH]c(-c3ccccc3)cn1-2 [Furimazine] | did not show the rapid-decay luminescence patterns | 5.3 | 4.8 | 6.8 | 5.5 | 73 | 452 |  |
| O=c1c(Cc2ccc(C(F)(F)F)cc2)nc2c(Cc3ccccc3)[nH]c(-c3ccc(O)cc3)cn1-2 [cf3-Coelenterazine] |  | 2.4 | 5.2 | 4.7 | 1.4 | 71 | 454 |  |
| Oc1ccc(-c2cn3c(O)c(Cc4ccccc4)nc3c(Cc3ccccc3)n2)cc1 [h-Coelenterazine] |  | 11.1 | 17.1 | 19.7 | 12.5 | 71 | 455 |  |
| Cc1ccc(Cc2nc3c(Cc4ccccc4)[nH]c(-c4ccc(O)cc4)cn-3c2=O)cc1 [me-Coelenterazine] |  | 3.0 | 5.2 | 4.2 | 1.3 | 75 | 460 |  |
| COc1ccc(Cc2nc3c(Cc4ccccc4)[nH]c(-c4ccc(O)cc4)cn-3c2=O)cc1 [meo-Coelenterazine] |  | 6.3 | 8.9 | 7.7 | 3.4 | 73 | 458 |  |
| bis-Coelenterazine | did not show the rapid-decay luminescence patterns; also recorded: continuous emission without decay of luminescence | 11.5 | 10.8 | 13.5 | 10.1 | 73 | 453 | at least 2 fold |
| et-Coelenterazine |  | 2.8 | 4.4 | 2.4 | 0.5 | 75 | 458 |  |
| i-Coelenterazine |  | 2.0 | 3.3 | 2.9 | 0.8 | 73 | 457 |  |
| n-Coelenterazine |  | 3.3 | 4.9 | 4.1 | 1.2 | 71 | 454 |  |
| αmeh-Coelenterazine |  | 0.1 | 0.1 | 0.1 | 0.1 | 73 | 462 |  |
